Measured values from US5977063A, “Alkylated hexapeptides” (Eli Lilly and Company, priority 1998, dated 1999).

How the values were obtained:
Assay type in all cases: cell-based
[1] = test system: Staphylococcus aureus 446; experiment: MIC, standard broth micro-dilution assay, SA 446; set-up: unit not given here
Protocol: (§1) The antibacterial efficacy of the present compounds is illustrated by Table II. The minimal inhibitory concentrations (MICs) were determined using a standard broth micro-dilution assay.

[2] = test system: Enterococcus faecium and faecalis (RESISTANT); conditions: geometric mean of 4-6 isolates
Protocol: as §1

[3] = test system: Streptococcus pneumoniae P1; experiment: MIC, standard broth micro-dilution assay, SPN P1; set-up: unit not given here
Protocol: as §1

[4] = test system: Staphylococcus epidermidis 270; experiment: MIC, standard broth micro-dilution assay, SE 270; set-up: unit not given here
Protocol: as §1

[5] = test system: Staphylococcus haemolyticus 415; experiment: MIC, standard broth micro-dilution assay, SH 415; set-up: unit not given here
Protocol: as §1

[6] = test system: Enterococcus faecium and faecalis (SENSITIVE); experiment: MIC, standard broth micro-dilution assay, SENSITIVE enterococci; set-up: unit not given here; conditions: geometric mean of 4-6 isolates
Protocol: as §1

[7] = test system: Staphylococcus aureus 447; experiment: MIC, standard broth micro-dilution assay, SA 447; set-up: unit not given here
Protocol: as §1

[8] = test system: Streptococcus pyogenes C203; experiment: MIC, standard broth micro-dilution assay, SPY C203; set-up: unit not given here
Protocol: as §1

[9] = test system: Staphylococcus aureus 489; experiment: MIC, standard broth micro-dilution assay, SA 489; set-up: unit not given here
Protocol: as §1

[10] = test system: Staphylococcus haemolyticus 105; experiment: MIC, standard broth micro-dilution assay, SH 105; set-up: unit not given here
Protocol: as §1

## C[C@@H]1O[C@@H](O[C@@H]2c3ccc(c(Cl)c3)Oc3cc4cc(c3O[C@@H]3O[C@H](CO)[C@@H](O)[C@H](O)[C@H]3O[C@H]3C[C@](C)(NCc5ccc(O)cc5)[C@@H](O)[C@H](C)O3)Oc3ccc(cc3Cl)[C@@H](O)[C@@H](NCc3ccc(O)cc3)C(=O)N[C@@H](CC(N)=O)C(=O)N[C@H]4C(=O)N[C@H]3C(=O)N[C@@H]2C(=O)N[C@H](C(=O)O)c2cc(O)cc(O)c2-c2cc3ccc2O)C[C@](C)(N)[C@H]1O [Example 9, N^1,N^DISACC -BIS(p-HYDROXYBENZYL)-DESLEUCYL-A82846B]
[1]
  Minimal Inhibitory Concentration (MIC) SA 446: 16
[2]
  Minimal Inhibitory Concentration (MIC) RESISTANT: > 128
[3]
  Minimal Inhibitory Concentration (MIC) SPN P1: 32
[4]
  Minimal Inhibitory Concentration (MIC) SE 270: 32
[5]
  Minimal Inhibitory Concentration (MIC) SH 415: 32
[6]
  Minimal Inhibitory Concentration (MIC) SENSITIVE: > 128
[7]
  Minimal Inhibitory Concentration (MIC) SA 447: 16
[8]
  Minimal Inhibitory Concentration (MIC) SPY C203: 16
[9]
  Minimal Inhibitory Concentration (MIC) SA 489: 16
[10]
  Minimal Inhibitory Concentration (MIC) SH 105: 32

## CCCCCCN[C@H]1C(=O)N[C@@H](CC(N)=O)C(=O)N[C@H]2C(=O)N[C@H]3C(=O)N[C@H](C(=O)N[C@H](C(=O)O)c4cc(O)cc(O)c4-c4cc3ccc4O)[C@H](O[C@H]3C[C@](C)(N)[C@@H](O)[C@H](C)O3)c3ccc(c(Cl)c3)Oc3cc2cc(c3O[C@@H]2O[C@H](CO)[C@@H](O)[C@H](O)[C@H]2O[C@H]2C[C@](C)(N)[C@@H](O)[C@H](C)O2)Oc2ccc(cc2Cl)[C@H]1O [Example 10, N^1 -n-HEXYLDESLEUCYL-A82846B]
[1]
  Minimal Inhibitory Concentration (MIC) SA 446: 32
[2]
  Minimal Inhibitory Concentration (MIC) RESISTANT: > 128
[3]
  Minimal Inhibitory Concentration (MIC) SPN P1: 32
[4]
  Minimal Inhibitory Concentration (MIC) SE 270: 32
[5]
  Minimal Inhibitory Concentration (MIC) SH 415: 64
[6]
  Minimal Inhibitory Concentration (MIC) SENSITIVE: > 128
[7]
  Minimal Inhibitory Concentration (MIC) SA 447: 32
[8]
  Minimal Inhibitory Concentration (MIC) SPY C203: 16
[9]
  Minimal Inhibitory Concentration (MIC) SA 489: 16
[10]
  Minimal Inhibitory Concentration (MIC) SH 105: 64

## CCCCCCN[C@H]1C(=O)N[C@@H](CC(N)=O)C(=O)N[C@H]2C(=O)N[C@H]3C(=O)N[C@H](C(=O)N[C@H](C(=O)O)c4cc(O)cc(O)c4-c4cc3ccc4O)[C@H](O[C@H]3C[C@](C)(N)[C@@H](O)[C@H](C)O3)c3ccc(c(Cl)c3)Oc3cc2cc(c3O[C@@H]2O[C@H](CO)[C@@H](O)[C@H](O)[C@H]2O[C@H]2C[C@](C)(NCc3ccc(-c4ccccc4)cc3)[C@@H](O)[C@H](C)O2)Oc2ccc(cc2Cl)[C@H]1O [Example 11, N^1 -n-HEXYL-N^DISACC -(p-PHENYLBENZYL)-DESLEUCYL-A82846B]
[1]
  Minimal Inhibitory Concentration (MIC) SA 446: 1
[2]
  Minimal Inhibitory Concentration (MIC) RESISTANT: 27
[3]
  Minimal Inhibitory Concentration (MIC) SPN P1: 0.125
[4]
  Minimal Inhibitory Concentration (MIC) SE 270: 0.5
[5]
  Minimal Inhibitory Concentration (MIC) SH 415: 1
[6]
  Minimal Inhibitory Concentration (MIC) SENSITIVE: 11
[7]
  Minimal Inhibitory Concentration (MIC) SA 447: 0.5
[8]
  Minimal Inhibitory Concentration (MIC) SPY C203: 0.125
[9]
  Minimal Inhibitory Concentration (MIC) SA 489: 1
[10]
  Minimal Inhibitory Concentration (MIC) SH 105: 2

## C[C@@H]1O[C@@H](O[C@H]2[C@H](Oc3c4cc5cc3Oc3ccc(cc3Cl)[C@@H](O[C@H]3C[C@](C)(N)[C@@H](O)[C@H](C)O3)[C@@H]3NC(=O)[C@H](NC(=O)[C@@H]5NC(=O)[C@H](CC(N)=O)NC(=O)[C@H](NCc5ccccc5)[C@H](O)c5ccc(c(Cl)c5)O4)c4ccc(O)c(c4)-c4c(O)cc(O)cc4[C@@H](C(=O)O)NC3=O)O[C@H](CO)[C@@H](O)[C@@H]2O)C[C@](C)(N)[C@H]1O [Example 12, N^1 -BENZYLDESLEUCYL-A82846B]
[1]
  Minimal Inhibitory Concentration (MIC) SA 446: > 64
[2]
  Minimal Inhibitory Concentration (MIC) RESISTANT: > 128
[3]
  Minimal Inhibitory Concentration (MIC) SPN P1: 2
[4]
  Minimal Inhibitory Concentration (MIC) SE 270: > 64
[5]
  Minimal Inhibitory Concentration (MIC) SH 415: > 64
[6]
  Minimal Inhibitory Concentration (MIC) SENSITIVE: 128
[7]
  Minimal Inhibitory Concentration (MIC) SA 447: > 64
[8]
  Minimal Inhibitory Concentration (MIC) SPY C203: 2
[9]
  Minimal Inhibitory Concentration (MIC) SA 489: 64
[10]
  Minimal Inhibitory Concentration (MIC) SH 105: > 64

## C[C@@H]1O[C@@H](O[C@H]2[C@H](Oc3c4cc5cc3Oc3ccc(cc3Cl)[C@@H](O[C@H]3C[C@](C)(N)[C@@H](O)[C@H](C)O3)[C@@H]3NC(=O)[C@H](NC(=O)[C@@H]5NC(=O)[C@H](CC(N)=O)NC(=O)[C@H](NCc5ccc(O)cc5)[C@H](O)c5ccc(c(Cl)c5)O4)c4ccc(O)c(c4)-c4c(O)cc(O)cc4[C@@H](C(=O)O)NC3=O)O[C@H](CO)[C@@H](O)[C@@H]2O)C[C@](C)(N)[C@H]1O [Example 13, N^1 -(p-HYDROXYBENZYL)-DESLEUCYL-A82846B]
[1]
  Minimal Inhibitory Concentration (MIC) SA 446: 16
[2]
  Minimal Inhibitory Concentration (MIC) RESISTANT: 54
[3]
  Minimal Inhibitory Concentration (MIC) SPN P1: ≤ .06
[4]
  Minimal Inhibitory Concentration (MIC) SE 270: 32
[5]
  Minimal Inhibitory Concentration (MIC) SH 415: > 64
[6]
  Minimal Inhibitory Concentration (MIC) SENSITIVE: 4
[7]
  Minimal Inhibitory Concentration (MIC) SA 447: 32
[8]
  Minimal Inhibitory Concentration (MIC) SPY C203: 0.25
[9]
  Minimal Inhibitory Concentration (MIC) SA 489: 8
[10]
  Minimal Inhibitory Concentration (MIC) SH 105: > 64

## C[C@@H]1O[C@@H](O[C@H]2[C@H](Oc3c4cc5cc3Oc3ccc(cc3Cl)[C@@H](O[C@H]3C[C@](C)(N)[C@@H](O)[C@H](C)O3)[C@@H]3NC(=O)[C@H](NC(=O)[C@@H]5NC(=O)[C@H](CC(N)=O)NC(=O)[C@H](NCCCCCCc5ccccc5)[C@H](O)c5ccc(c(Cl)c5)O4)c4ccc(O)c(c4)-c4c(O)cc(O)cc4[C@@H](C(=O)O)NC3=O)O[C@H](CO)[C@@H](O)[C@@H]2O)C[C@](C)(N)[C@H]1O [Example 14, N^1 -(6-PHENYL-n-HEXYL)DESLEUCYL-A82846B]
[1]
  Minimal Inhibitory Concentration (MIC) SA 446: 16
[2]
  Minimal Inhibitory Concentration (MIC) RESISTANT: > 50
[3]
  Minimal Inhibitory Concentration (MIC) SPN P1: ≤ .06
[4]
  Minimal Inhibitory Concentration (MIC) SE 270: 8
[5]
  Minimal Inhibitory Concentration (MIC) SH 415: 8
[6]
  Minimal Inhibitory Concentration (MIC) SENSITIVE: 37
[7]
  Minimal Inhibitory Concentration (MIC) SA 447: 8
[8]
  Minimal Inhibitory Concentration (MIC) SPY C203: ≤ .06
[9]
  Minimal Inhibitory Concentration (MIC) SA 489: 8
[10]
  Minimal Inhibitory Concentration (MIC) SH 105: 8

## C[C@@H]1O[C@@H](O[C@@H]2c3ccc(c(Cl)c3)Oc3cc4cc(c3O[C@@H]3O[C@H](CO)[C@@H](O)[C@H](O)[C@H]3O[C@H]3C[C@](C)(NCCCCCCc5ccccc5)[C@@H](O)[C@H](C)O3)Oc3ccc(cc3Cl)[C@@H](O)[C@@H](NCCCCCCc3ccccc3)C(=O)N[C@@H](CC(N)=O)C(=O)N[C@H]4C(=O)N[C@H]3C(=O)N[C@@H]2C(=O)N[C@H](C(=O)O)c2cc(O)cc(O)c2-c2cc3ccc2O)C[C@](C)(N)[C@H]1O [Example 15, N^1,N^DISACC -BIS(6-PHENYL-n-HEXYL) -DESLEUCYL-A82846B]
[1]
  Minimal Inhibitory Concentration (MIC) SA 446: 4
[2]
  Minimal Inhibitory Concentration (MIC) RESISTANT: 8
[3]
  Minimal Inhibitory Concentration (MIC) SPN P1: 0.5
[4]
  Minimal Inhibitory Concentration (MIC) SE 270: 2
[5]
  Minimal Inhibitory Concentration (MIC) SH 415: 2
[6]
  Minimal Inhibitory Concentration (MIC) SENSITIVE: 6
[7]
  Minimal Inhibitory Concentration (MIC) SA 447: 2
[8]
  Minimal Inhibitory Concentration (MIC) SPY C203: 0.125
[9]
  Minimal Inhibitory Concentration (MIC) SA 489: 2
[10]
  Minimal Inhibitory Concentration (MIC) SH 105: 1

## C[C@@H]1O[C@@H](O[C@@H]2c3ccc(c(Cl)c3)Oc3cc4cc(c3O[C@@H]3O[C@H](CO)[C@@H](O)[C@H](O)[C@H]3O[C@H]3C[C@](C)(NCCCCCCCCCCc5ccccc5)[C@@H](O)[C@H](C)O3)Oc3ccc(cc3Cl)[C@@H](O)[C@@H](NCCCCCCCCCCc3ccccc3)C(=O)N[C@@H](CC(N)=O)C(=O)N[C@H]4C(=O)N[C@H]3C(=O)N[C@@H]2C(=O)N[C@H](C(=O)O)c2cc(O)cc(O)c2-c2cc3ccc2O)C[C@](C)(N)[C@H]1O [Example 16, N^1,N^DISACC -BIS(10 PHENYL-n-DECYL)-DESLEUCYL-A82846B]
[1]
  Minimal Inhibitory Concentration (MIC) SA 446: > 64
[2]
  Minimal Inhibitory Concentration (MIC) RESISTANT: > 128
[3]
  Minimal Inhibitory Concentration (MIC) SPN P1: 16
[4]
  Minimal Inhibitory Concentration (MIC) SE 270: > 64
[5]
  Minimal Inhibitory Concentration (MIC) SH 415: > 64
[6]
  Minimal Inhibitory Concentration (MIC) SENSITIVE: > 11
[7]
  Minimal Inhibitory Concentration (MIC) SA 447: > 64
[8]
  Minimal Inhibitory Concentration (MIC) SPY C203: 8
[9]
  Minimal Inhibitory Concentration (MIC) SA 489: 64
[10]
  Minimal Inhibitory Concentration (MIC) SH 105: > 64
